Assay results published in paper PMC3914656 (Journal of cancer science & therapy, 2013).
Counter-ions that a name gives are not always drawn.

Key:
p-gp = assay: qRT-PCR gene expression of p-gp in treated Caco-2 cells; format: cell-based; settings: for expression of p-gp (qRT-PCR): Caco-2 cells, 24-hrs treatment, actin as control
[1] = Stability in perfusion solution; format: physicochemical; settings: Phosphate Buffer Saline pH 7.4 with phenol red, room temperature, 6 hrs, RP-HPLC
[2] = Rat in-situ single-pass colon perfusion, effective permeability coefficient; settings: N-Nitroso N-methyl urea induced colon cancer, Figure 3

stability in perfusion samples [1]	permeability coefficient in cancerous colon in comparison to normal colon [2]	SMILES	expression of p-gp (qRT-PCR) (p-gp)	decrease in the expression of p-glycoprotein (P-gp) (p-gp; qRT-PCR and Western blot, curcumin treated colon cancer cells)
stable	decreased	CCc1c2c(nc3ccc(OC(=O)N4CCC(N5CCCCC5)CC4)cc13)-c1cc3c(c(=O)n1C2)COC(=O)[C@]3(O)CC [Irinotecan, Irinotecan Hydrochloride]	increased	
		COc1cc(/C=C/C(=O)CC(=O)/C=C/c2ccc(O)c(OC)c2)ccc1O [curcumin]	significant inhibition	about 15 fold
stable		CC(C)NCC(O)COc1cccc2ccccc12 (stereo not drawn) [propranolol]		
